Laboratory results as given in US9056087B2, “Methods of healing or preventing inflammation, damage and other changes that occur prior to, during or immediately after a myocardial event with thymosin beta 4, analogues, isoforms and other derivatives” (REGENERX BIOPHARMACEUTICALS, INC., priority 2001, dated 2015).

Tested on: cardiac endothelial cells
Assay: collagen gel assay: transformation of cardiac endothelial cells to mesenchymal cells
Assay type: cell-based
Conditions: at physiological concentrations (Tβ4)
Protocol: Synthetic Tβ4 and an antibody to Tβ4 was provided by RegeneRx Biopharmaceuticals, Inc. (3 Bethesda Metro Center, Suite 700, Bethesda, Md. 20814) and were tested in a collagen gel assay to determine their effects on the Transformation of cardiac endothelial cells to mesenchymal cells. It is Well established that development of heart valves and other cardiac tissue are formed by epithelial-mesenchymal transformation and that defects in this process can cause serious cardiovascular malformation and injury during development and throughout life. […] Transformation of atrioventricular endocardium into invasive mesenchyme is critical in the formation and maintenance of normal cardiac tissue and in the formation of heart valves.

Substance: Thymosin β4 (SDKPDMAEIEKFDKSKLKKTETQEKNPLPSKETIEQEKQAGES; not fully specified; Thymosin beta-4; UniProt P62328 2-44, looked up) [Tβ4, synthetic Tβ4 provided by RegeneRx]
- effect on the transformation of endocardial cells to mesenchymal cells in the collagen gel assay: markedly enhances the transformation
